Test results as given in patent publication US11806342B2, “Diiodohydroxyquinoline for the treatment of clostridium difficile infection” (Purdue Research Foundation, priority 2019, dated 2023).
Converted amounts (≈) assume the structure as drawn.

Columns and labels:
Assay type in all cases: cell-based, Clostridium difficile
[1] = test system: C. difficile I6; experiment: Checkerboard assay, DIHQ with metronidazole or vancomycin
Protocol: (§1) Interactions between diiodohydroxyquinoline and the anticlostridial drugs (metronidazole and vancomycin) against Clostridium difficile clinical isolates. […] The fractional inhibitory concentration index (ΣFIC) was calculated for each interaction. Interactions where the ΣFIC index was ≤0.5 were categorized as synergistic (SYN).

[2] = test system: C. difficile ATCC 9689; experiment: as above
Protocol: as §1

[3] = test system: C. difficile P5; experiment: MIC and MBC, broth microdilution; conditions: Clostridioides difficile, C. difficile P5
Protocol: (§2) Antibacterial activity of Diiodohydroxyquinoline against a wide panel of Clostridium difficile strains. […] MIC50 and MIC90 are the minimum concentration of each agent that inhibited growth of 50% and 90% of the tested isolates, respectively. The minimum bactericidal concentration (MBC) of these drugs was tested by plating 5 μL from wells with no growth onto BHIS agar plates. The MBC was categorized as the lowest concentration that reduced bacterial growth by 99.9% MIC50 and MIC90 are the minimum concentration of each agent that inhibited the growth of 50% and 90% of the tested isolates, respectively. The minimum bactericidal concentration (MBC) of these drugs was tested by plating 5 μL from wells with no growth onto BHIS agar plates. The MBC was categorized as the lowest concentration that reduced bacterial growth by 99.9% [29-31].

[4] = test system: C. difficile NR-49278; experiment: MIC and MBC, broth microdilution; conditions: Clostridioides difficile, NR49278, C. difficile NR-49278
Protocol: as §2

[5] = test system: C. difficile I11; experiment: MIC and MBC, broth microdilution; conditions: Clostridioides difficile, C. difficile I11
Protocol: as §2

[6] = test system: C. difficile I13; experiment: MIC and MBC, broth microdilution; conditions: Clostridioides difficile, C. difficile I13
Protocol: as §2

[7] = test system: C. difficile P30; experiment: MIC and MBC, broth microdilution; conditions: Clostridioides difficile, C. difficile P30
Protocol: as §2

[8] = test system: C. difficile I6; experiment: MIC and MBC, broth microdilution; conditions: Clostridioides difficile, C. difficile I6
Protocol: as §2

[9] = test system: C. difficile I10; experiment: MIC and MBC, broth microdilution; conditions: Clostridioides difficile, C. difficile I10
Protocol: as §2

[10] = test system: C. difficile NR-49288; experiment: MIC and MBC, broth microdilution; conditions: Clostridioides difficile, NR49288, C. difficile NR-49288
Protocol: as §2

[11] = test system: C. difficile HM-745; experiment: MIC and MBC, broth microdilution; conditions: Clostridioides difficile, HM745, C. difficile HM-745
Protocol: as §2

[12] = test system: C. difficile NR-49285; experiment: MIC and MBC, broth microdilution; conditions: Clostridioides difficile, NR49285, C. difficile NR-49285
Protocol: as §2

[13] = test system: C. difficile P20; experiment: MIC and MBC, broth microdilution; conditions: Clostridioides difficile, C. difficile P20
Protocol: as §2

[14] = test system: C. difficile P3; experiment: MIC and MBC, broth microdilution; conditions: Clostridioides difficile, C. difficile P3
Protocol: as §2

[15] = test system: C. difficile ATCC 1801; experiment: MIC and MBC, broth microdilution; conditions: Clostridioides difficile, ATCC1801, C. difficile ATCC 1801
Protocol: as §2

[16] = test system: C. difficile I9; experiment: MIC and MBC, broth microdilution; conditions: Clostridioides difficile, C. difficile I9
Protocol: as §2

[17] = test system: C. difficile P6; experiment: MIC and MBC, broth microdilution; conditions: Clostridioides difficile, C. difficile P6
Protocol: as §2

[18] = test system: C. difficile P19; experiment: MIC and MBC, broth microdilution; conditions: Clostridioides difficile, C. difficile P19
Protocol: as §2

[19] = test system: C. difficile P15; experiment: MIC and MBC, broth microdilution; conditions: Clostridioides difficile, C. difficile P15
Protocol: as §2

[20] = test system: C. difficile ATCC 43255; experiment: MIC and MBC, broth microdilution; conditions: Clostridioides difficile, ATCC43255, C. difficile ATCC 43255
Protocol: as §2

[21] = test system: C. difficile ATCC BAA-1870; experiment: Toxin A and B production inhibition, ELISA; conditions: 8 hours
Protocol: (§3) To investigate DIHQs toxin production inhibitory activity, toxin A and toxin B levels were measured as described previously. […] An aliquot from each tube was diluted and plated on BHIS agar plates and incubated anaerobically at 37° C. for 24 hours to detect the bacterial count. The total concentration of C. difficile toxin A and B was measured in the supernatant of each tube using enzyme linked immunosorbent assay (ELISA) kit (tgc BIOMICS, Dunwoody, GA) following the manufacturer's instructions. The (OD450-OD620) values, corresponding to the toxin concentration, were measured for DIHQ and control drugs.

[22] = test system: C. difficile NR-49277; experiment: Toxin A and B production inhibition, ELISA; conditions: 8 hours
Protocol: as §3

[23] = test system: C. difficile ATCC 43255; experiment: Toxin A and B production inhibition, ELISA; conditions: 8 hours
Protocol: as §3

[24] = DIHQ with metronidazole, C. difficile I6
[25] = DIHQ with vancomycin, C. difficile I6
[26] = DIHQ with metronidazole, C. difficile ATCC 9689
[27] = DIHQ with vancomycin, C. difficile ATCC 9689

## Oc1c(I)cc(I)c2cccnc12 [DIHQ, 5,7-diiodoquinolin-8-ol]
[1]; C. difficile I6
  MIC of DIHQ combined with metronidazole: 0.125 µg/mL
  MIC of DIHQ combined with vancomycin: 0.5 µg/mL
[1]; C. difficile I6, Table 4
  MIC alone: 2 µg/mL
[1]; Clostridioides difficile, C. difficile I6, Table 3, read-out: MIC alone
  MIC: 2 µg/mL
[1]; [24]
  Interpretation: SYN (ΣFIC index ≤0.5 is considered synergistic (SYN))
  ΣFIC Index: 0.188
[1]; [25]
  Interpretation: SYN (ΣFIC index ≤0.5 is considered synergistic (SYN))
  ΣFIC Index: 0.375
[2]; C. difficile ATCC 9689
  MIC of DIHQ combined with metronidazole: 0.06 µg/mL
  MIC of DIHQ combined with vancomycin: 0.06 µg/mL
[2]; C. difficile ATCC 9689, Table 4
  MIC alone: 0.125 µg/mL
[2]; Clostridioides difficile, ATCC9689, C. difficile ATCC 9689, Table 3, read-out: MIC alone
  MIC: 0.125 µg/mL
[2]; [26]
  Interpretation: ADD (ΣFIC index >0.5 − 1.25 is considered additive (ADD))
  ΣFIC Index: 0.62
[2]; [27]
  Interpretation: ADD (ΣFIC index >0.5 − 1.25 is considered additive (ADD))
  ΣFIC Index: 0.625
[3]; read-out: MBC
  MBC: 4 µg/mL (≈ 10.1 µM)
[3]; read-out: MIC
  MIC: 2 µg/mL (≈ 5.04 µM)
[4]; read-out: MBC
  MBC: 0.5 µg/mL (≈ 1.26 µM)
[4]; read-out: MIC
  MIC: 0.25 µg/mL (≈ 0.63 µM)
[5]; read-out: MBC
  MBC: 1 µg/mL (≈ 2.52 µM)
[5]; read-out: MIC
  MIC: 1 µg/mL (≈ 2.52 µM)
[6]; read-out: MBC
  MBC: 2 µg/mL (≈ 5.04 µM)
[6]; read-out: MIC
  MIC: 2 µg/mL (≈ 5.04 µM)
[7]; read-out: MBC
  MBC: 0.5 µg/mL (≈ 1.26 µM)
[7]; read-out: MIC
  MIC: 0.5 µg/mL (≈ 1.26 µM)
[8]; read-out: MBC
  MBC: 0.5 µg/mL (≈ 1.26 µM)
[8]; read-out: MIC
  MIC: 0.5 µg/mL (≈ 1.26 µM)
[9]; read-out: MBC
  MBC: 1 µg/mL (≈ 2.52 µM)
[9]; read-out: MIC
  MIC: 1 µg/mL (≈ 2.52 µM)
[10]; read-out: MBC
  MBC: 0.5 µg/mL (≈ 1.26 µM)
[10]; read-out: MIC
  MIC: 0.25 µg/mL (≈ 0.63 µM)
[11]; read-out: MBC
  MBC: 1 µg/mL (≈ 2.52 µM)
[11]; read-out: MIC
  MIC: 1 µg/mL (≈ 2.52 µM)
[12]; read-out: MBC
  MBC: 1 µg/mL (≈ 2.52 µM)
[12]; read-out: MIC
  MIC: 1 µg/mL (≈ 2.52 µM)
[13]; read-out: MBC
  MBC: 1 µg/mL (≈ 2.52 µM)
[13]; read-out: MIC
  MIC: 1 µg/mL (≈ 2.52 µM)
[14]; read-out: MBC
  MBC: 2 µg/mL (≈ 5.04 µM)
[14]; read-out: MIC
  MIC: 2 µg/mL (≈ 5.04 µM)
[15]; read-out: MBC
  MBC: 4 µg/mL (≈ 10.1 µM)
[15]; read-out: MIC
  MIC: 2 µg/mL (≈ 5.04 µM)
[16]; read-out: MBC
  MBC: 0.06 µg/mL (≈ 0.151 µM)
[16]; read-out: MIC
  MIC: 0.06 µg/mL (≈ 0.151 µM)
[17]; read-out: MBC
  MBC: 0.5 µg/mL (≈ 1.26 µM)
[17]; read-out: MIC
  MIC: 0.5 µg/mL (≈ 1.26 µM)
[18]; read-out: MBC
  MBC: 1 µg/mL (≈ 2.52 µM)
[18]; read-out: MIC
  MIC: 0.5 µg/mL (≈ 1.26 µM)
[19]; read-out: MBC
  MBC: 1 µg/mL (≈ 2.52 µM)
[19]; read-out: MIC
  MIC: 1 µg/mL (≈ 2.52 µM)
[20]; read-out: MBC
  MBC: 0.5 µg/mL (≈ 1.26 µM)
[20]; read-out: MIC
  MIC: 0.5 µg/mL (≈ 1.26 µM)
[21]; C. difficile ATCC BAA-1870, ¼×MIC
  inhibition of total toxin production: 17.8%
[21]; C. difficile ATCC BAA-1870, ½×MIC
  inhibition of total toxin production: 27%
[22]; C. difficile NR-49277, ¼×MIC
  inhibition of total toxin production: ~31.8%
[22]; C. difficile NR-49277, ½×MIC
  inhibition of total toxin production: ~38.9%
[23]; C. difficile ATCC 43255, ¼×MIC
  inhibition of total toxin production: ~8%
[23]; C. difficile ATCC 43255, ½×MIC
  inhibition of total toxin production: ~28.5%
